Reference: publication PMC12198282, “Application of a high-density microelectrode array assay using a 3D human iPSC-derived brain microphysiological system model for in vitro neurotoxicity screening of environmental compounds” (Archives of Toxicology, 2025)
Like-named read-outs stand apart in the source and are kept apart here. Marks after values point to notes of the source that are not given here.

Experiments:
BrainSpheres = experiment: Cytotoxicity evaluation, resazurin assay (BrainSphere.Cyto); type: cell-based, human; settings: for AC50: read-out: ac50 BrainSphere.Cyto; on hitc BrainSphere.Cyto: key: 1 (active); 0 (inactive)
Description: For the resazurin assay, BrainSpheres were cultured for 7 weeks in non-treated 6-well plates under gyratory shaking. Subsequently, the cells were exposed in the same manner as the HD-MEA plates. This assay was used to determine cell viability after exposure for 13 days to the different compounds. After exposure, resazurin diluted in PBS was added directly to the 6-well plates to a final concentration of 0.1 mg/ml. The plates were then put in an incubator for 3 h at 37 °C, 5% CO2. Then, 100 µl of the media was collected and transferred in a 96-well plate for fluorescence analysis, which was done at ex:530 nm/em:590 nm in a multi-well fluorometric reader CytoFluor series 4000 (PerSeptive Biosystems, Inc).
Ten metrics were measured to evaluate changes in neural activity in the BrainSphere MEA assay (Table 3). Considering the complexity of the data which includes seven recording days for each single ROI in a well, an area under the curve (AUC) metric was used to reduce activity across time as described in previous publications (Brown et al. [2016]; Frank et al. [2017b]; Shafer et al. [2019]). […] For concentration–response modeling, the mean AUC values across all the BrainSpheres per well (technical replicates) was computed for each endpoint, such that each concentration included biological replicates from at least three separate wells on three separate plates, representing each individual experiment. The mean AUC values were used for concentration–response modeling using the R package tcplfit2 (version 0.1.6) (Sheffield et al. [2022]). Data were normalized as a percent of vehicle control wells by plate using the equation: resp.pc=rval-bval/bval×100 where resp.pc is the percent of control value, rval is the response value, and bval is the baseline value (defined as the mean of the vehicle control and the lowest tested concentration). […] The activity cutoff was defined as 3 times the median absolute deviation (bmad) of baseline values. A curve was defined as ‘active’ if the continuous hit call was ≥ 0.9. See Supplemental Table 1 for the bmad, activity cutoff threshold, SD, and benchmark response for each endpoint in the BrainSphere MEA. Potency was defined as the concentration at 50% maximal activity (AC50 log10 µM).

2D rat cortical cultures = settings: cited from earlier work; on hitc CCTE Shafer MEA dev active electrodes number: key: 1 (active); 0 (inactive); on hitc CCTE Shafer MEA dev burst duration mean: key: 1 (active); 0 (inactive); on hitc CCTE Shafer MEA dev burst rate: key: 1 (active); 0 (inactive); on hitc CCTE Shafer MEA dev bursting electrodes number: key: 1 (active); 0 (inactive); on hitc CCTE Shafer MEA dev correlation coefficient mean: key: 1 (active); 0 (inactive); on hitc CCTE Shafer MEA dev firing rate mean: key: 1 (active); 0 (inactive); on hitc CCTE Shafer MEA dev inter network spike interval mean: key: 1 (active); 0 (inactive); on hitc CCTE Shafer MEA dev interburst interval mean: key: 1 (active); 0 (inactive); on hitc CCTE Shafer MEA dev mutual information norm: key: 1 (active); 0 (inactive); on hitc CCTE Shafer MEA dev network spike duration std: key: 1 (active); 0 (inactive); on hitc CCTE Shafer MEA dev network spike number: key: 1 (active); 0 (inactive); on hitc CCTE Shafer MEA dev network spike peak: key: 1 (active); 0 (inactive); on hitc CCTE Shafer MEA dev per burst interspike interval: key: 1 (active); 0 (inactive); on hitc CCTE Shafer MEA dev per burst spike percent: key: 1 (active); 0 (inactive); on hitc CCTE Shafer MEA dev per network spike spike number mean: key: 1 (active); 0 (inactive); on hitc CCTE Shafer MEA dev per network spike spike percent: key: 1 (active); 0 (inactive); on hitc CCTE Shafer MEA dev spike duration mean: key: 1 (active); 0 (inactive)
[1] = Homo sapiens, 312 h, resazurin, day 13, Supplement 3 prints it also for curves with hit call 0
[2] = resazurin, after 13 days of exposure
[3] = tcplfit2 BMD at benchmark response (1.349*SD of baseline controls)
[4] = tcplfit2 output ACC, activity cutoff in Supplemental Table 1
[5] = rNFA mc5, aenm active_electrodes_number, read-out: ac50 CCTE_Shafer_MEA_dev_active_electrodes_number
[6] = rNFA mc5, aenm bursting_electrodes_number, read-out: ac50 CCTE_Shafer_MEA_dev_bursting_electrodes_number
[7] = rNFA mc5 hit call, aenm active_electrodes_number
[8] = rNFA mc5 hit call, aenm burst_duration_mean
[9] = rNFA mc5 hit call, aenm burst_rate
[10] = rNFA mc5 hit call, aenm bursting_electrodes_number
[11] = rNFA mc5 hit call, aenm correlation_coefficient_mean
[12] = rNFA mc5 hit call, aenm firing_rate_mean
[13] = rNFA mc5 hit call, aenm inter_network_spike_interval_mean
[14] = rNFA mc5 hit call, aenm interburst_interval_mean
[15] = rNFA mc5 hit call, aenm mutual_information_norm
[16] = rNFA mc5 hit call, aenm network_spike_duration_std
[17] = rNFA mc5 hit call, aenm network_spike_number
[18] = rNFA mc5 hit call, aenm network_spike_peak
[19] = rNFA mc5 hit call, aenm per_burst_interspike_interval
[20] = rNFA mc5 hit call, aenm per_burst_spike_percent
[21] = rNFA mc5 hit call, aenm per_network_spike_spike_number_mean
[22] = rNFA mc5 hit call, aenm per_network_spike_spike_percent
[23] = rNFA mc5 hit call, aenm spike_duration_mean

CC(C)(c1ccc(O)cc1)c1ccc(O)cc1 [Bisphenol A]
AC50 (BrainSpheres; [1]): 6800 nM | Cytotoxicity hit (BrainSpheres; [2]): 0 | hitc BrainSphere.Cyto (BrainSpheres; resazurin, day 13, tcplfit2): 0 | BMD BrainSphere.Cyto (BrainSpheres; [3]): 680 µM | ACC BrainSphere.Cyto (BrainSpheres; [4]): 11523 µM | Number of active endpoints in the rNFA (2D rat cortical cultures; of 17 MEA endpoints, ref Brown et al. [2016], Carstens et al. [2022], Frank et al. [2017b], Shafer et al. [2019], ToxCast invitrodb (v4.2)): two | AC50 (2D rat cortical cultures; [5]): 15000 nM | AC50 (2D rat cortical cultures; [6]): 9890 nM | hitc CCTE_Shafer_MEA_dev_active_electrodes_number (2D rat cortical cultures; [7]): 1 | hitc CCTE_Shafer_MEA_dev_burst_duration_mean (2D rat cortical cultures; [8]): 0 | hitc CCTE_Shafer_MEA_dev_burst_rate (2D rat cortical cultures; [9]): 0 | hitc CCTE_Shafer_MEA_dev_bursting_electrodes_number (2D rat cortical cultures; [10]): 1 | hitc CCTE_Shafer_MEA_dev_correlation_coefficient_mean (2D rat cortical cultures; [11]): 0 | hitc CCTE_Shafer_MEA_dev_firing_rate_mean (2D rat cortical cultures; [12]): 0 | hitc CCTE_Shafer_MEA_dev_inter_network_spike_interval_mean (2D rat cortical cultures; [13]): 0 | hitc CCTE_Shafer_MEA_dev_interburst_interval_mean (2D rat cortical cultures; [14]): 0 | hitc CCTE_Shafer_MEA_dev_mutual_information_norm (2D rat cortical cultures; [15]): 0 | hitc CCTE_Shafer_MEA_dev_network_spike_duration_std (2D rat cortical cultures; [16]): 0 | hitc CCTE_Shafer_MEA_dev_network_spike_number (2D rat cortical cultures; [17]): 0 | hitc CCTE_Shafer_MEA_dev_network_spike_peak (2D rat cortical cultures; [18]): 0 | hitc CCTE_Shafer_MEA_dev_per_burst_interspike_interval (2D rat cortical cultures; [19]): 0 | hitc CCTE_Shafer_MEA_dev_per_burst_spike_percent (2D rat cortical cultures; [20]): 0 | hitc CCTE_Shafer_MEA_dev_per_network_spike_spike_number_mean (2D rat cortical cultures; [21]): 0 | hitc CCTE_Shafer_MEA_dev_per_network_spike_spike_percent (2D rat cortical cultures; [22]): 0 | hitc CCTE_Shafer_MEA_dev_spike_duration_mean (2D rat cortical cultures; [23]): 0

Brc1ccc(Oc2ccc(Br)cc2Br)c(Br)c1 [BDE- 47]
Cytotoxicity hit (BrainSpheres; [2]): 0 | hitc BrainSphere.Cyto (BrainSpheres; resazurin, day 13, tcplfit2): 0 | AC50 (BrainSpheres; resazurin, day 13, Supplement 3 prints it also for curves with hit call 0): 45000 nM | BMD BrainSphere.Cyto (BrainSpheres; [3]): 79 µM | ACC BrainSphere.Cyto (BrainSpheres; [4]): 89 µM | Top BrainSphere.Cyto (BrainSpheres; top of winning model, response normalized as percent of vehicle control, negative = decrease): 4.9 | AC50 (2D rat cortical cultures; [5]): 10000 nM | AC50 (2D rat cortical cultures; [6]): 23 nM | AC50 (2D rat cortical cultures; rNFA mc5, aenm correlation_coefficient_mean, read-out: ac50 CCTE_Shafer_MEA_dev_correlation_coefficient_mean): 4260 nM | AC50 (2D rat cortical cultures; rNFA mc5, aenm mutual_information_norm, read-out: ac50 CCTE_Shafer_MEA_dev_mutual_information_norm): 13 nM | AC50 (2D rat cortical cultures; rNFA mc5, aenm network_spike_peak, read-out: ac50 CCTE_Shafer_MEA_dev_network_spike_peak): 10000 nM | AC50 (2D rat cortical cultures; rNFA mc5, aenm per_burst_spike_percent, read-out: ac50 CCTE_Shafer_MEA_dev_per_burst_spike_percent): 14200 nM | AC50 (2D rat cortical cultures; rNFA mc5, aenm per_network_spike_spike_number_mean, read-out: ac50 CCTE_Shafer_MEA_dev_per_network_spike_spike_number_mean): 4000 nM | AC50 (2D rat cortical cultures; rNFA mc5, aenm per_network_spike_spike_percent, read-out: ac50 CCTE_Shafer_MEA_dev_per_network_spike_spike_percent): 15100 nM | AC50 (2D rat cortical cultures; rNFA mc5, aenm spike_duration_mean, read-out: ac50 CCTE_Shafer_MEA_dev_spike_duration_mean): 15000 nM | hitc CCTE_Shafer_MEA_dev_active_electrodes_number (2D rat cortical cultures; [7]): 1 | hitc CCTE_Shafer_MEA_dev_burst_duration_mean (2D rat cortical cultures; [8]): 0 | hitc CCTE_Shafer_MEA_dev_burst_rate (2D rat cortical cultures; [9]): 0 | hitc CCTE_Shafer_MEA_dev_bursting_electrodes_number (2D rat cortical cultures; [10]): 1 | hitc CCTE_Shafer_MEA_dev_correlation_coefficient_mean (2D rat cortical cultures; [11]): 1 | hitc CCTE_Shafer_MEA_dev_firing_rate_mean (2D rat cortical cultures; [12]): 0 | hitc CCTE_Shafer_MEA_dev_inter_network_spike_interval_mean (2D rat cortical cultures; [13]): 0 | hitc CCTE_Shafer_MEA_dev_interburst_interval_mean (2D rat cortical cultures; [14]): 0 | hitc CCTE_Shafer_MEA_dev_mutual_information_norm (2D rat cortical cultures; [15]): 1 | hitc CCTE_Shafer_MEA_dev_network_spike_duration_std (2D rat cortical cultures; [16]): 0 | hitc CCTE_Shafer_MEA_dev_network_spike_number (2D rat cortical cultures; [17]): 0 | hitc CCTE_Shafer_MEA_dev_network_spike_peak (2D rat cortical cultures; [18]): 1 | hitc CCTE_Shafer_MEA_dev_per_burst_interspike_interval (2D rat cortical cultures; [19]): 0 | hitc CCTE_Shafer_MEA_dev_per_burst_spike_percent (2D rat cortical cultures; [20]): 1 | hitc CCTE_Shafer_MEA_dev_per_network_spike_spike_number_mean (2D rat cortical cultures; [21]): 1 | hitc CCTE_Shafer_MEA_dev_per_network_spike_spike_percent (2D rat cortical cultures; [22]): 1 | hitc CCTE_Shafer_MEA_dev_spike_duration_mean (2D rat cortical cultures; [23]): 1

CN(C)C(=O)C(CCN1CCC(O)(c2ccc(Cl)cc2)CC1)(c1ccccc1)c1ccccc1 [Loperamide]
Cytotoxicity / cell viability in the BrainSphere resazurin assay (in words) (BrainSpheres): positive hit call for cytotoxicity | AC50 (BrainSpheres; Homo sapiens, 312 h): 18000 nM | ACC BrainSphere.Cyto (BrainSpheres; human): 8.7 µM | BMD BrainSphere.Cyto (BrainSpheres; human): 8.4 µM | Cytotoxicity / cell viability in the BrainSphere resazurin assay (in words) (BrainSpheres; human): appeared to demonstrate cytotoxic effects at 30 and 90 µM | Cytotoxicity hit (BrainSpheres; human): 1* | hitc BrainSphere.Cyto (BrainSpheres; human): 1 | AC50 (BrainSpheres): 18100 nM | Bioactivity in the rNFA (in words) (2D rat cortical cultures): alter multiple parameters of network formation | hitc CCTE_Shafer_MEA_dev_active_electrodes_number (2D rat cortical cultures): 1 | hitc CCTE_Shafer_MEA_dev_burst_duration_mean (2D rat cortical cultures): 1 | hitc CCTE_Shafer_MEA_dev_burst_rate (2D rat cortical cultures): 1 | hitc CCTE_Shafer_MEA_dev_bursting_electrodes_number (2D rat cortical cultures): 1 | hitc CCTE_Shafer_MEA_dev_correlation_coefficient_mean (2D rat cortical cultures): 1 | hitc CCTE_Shafer_MEA_dev_firing_rate_mean (2D rat cortical cultures): 1 | hitc CCTE_Shafer_MEA_dev_inter_network_spike_interval_mean (2D rat cortical cultures): 0 | hitc CCTE_Shafer_MEA_dev_interburst_interval_mean (2D rat cortical cultures): 1 | hitc CCTE_Shafer_MEA_dev_mutual_information_norm (2D rat cortical cultures): 1 | hitc CCTE_Shafer_MEA_dev_network_spike_duration_std (2D rat cortical cultures): 1 | hitc CCTE_Shafer_MEA_dev_network_spike_number (2D rat cortical cultures): 1 | hitc CCTE_Shafer_MEA_dev_network_spike_peak (2D rat cortical cultures): 1 | hitc CCTE_Shafer_MEA_dev_per_burst_interspike_interval (2D rat cortical cultures): 1 | hitc CCTE_Shafer_MEA_dev_per_burst_spike_percent (2D rat cortical cultures): 1 | hitc CCTE_Shafer_MEA_dev_per_network_spike_spike_number_mean (2D rat cortical cultures): 1 | hitc CCTE_Shafer_MEA_dev_per_network_spike_spike_percent (2D rat cortical cultures): 1 | hitc CCTE_Shafer_MEA_dev_spike_duration_mean (2D rat cortical cultures): 1 | AC50 (2D rat cortical cultures; read-out: ac50 CCTE_Shafer_MEA_dev_active_electrodes_number): 196 nM | AC50 (2D rat cortical cultures; read-out: ac50 CCTE_Shafer_MEA_dev_burst_duration_mean): 33 nM | AC50 (2D rat cortical cultures; read-out: ac50 CCTE_Shafer_MEA_dev_burst_rate): 42 nM | AC50 (2D rat cortical cultures; read-out: ac50 CCTE_Shafer_MEA_dev_bursting_electrodes_number): 117 nM | AC50 (2D rat cortical cultures; read-out: ac50 CCTE_Shafer_MEA_dev_correlation_coefficient_mean): 766 nM | AC50 (2D rat cortical cultures; read-out: ac50 CCTE_Shafer_MEA_dev_firing_rate_mean): 63 nM | AC50 (2D rat cortical cultures; read-out: ac50 CCTE_Shafer_MEA_dev_interburst_interval_mean): 249 nM | AC50 (2D rat cortical cultures; read-out: ac50 CCTE_Shafer_MEA_dev_mutual_information_norm): 112 nM | AC50 (2D rat cortical cultures; read-out: ac50 CCTE_Shafer_MEA_dev_network_spike_duration_std): 262 nM | AC50 (2D rat cortical cultures; read-out: ac50 CCTE_Shafer_MEA_dev_network_spike_number): 33 nM | AC50 (2D rat cortical cultures; read-out: ac50 CCTE_Shafer_MEA_dev_network_spike_peak): 1810 nM | AC50 (2D rat cortical cultures; read-out: ac50 CCTE_Shafer_MEA_dev_per_burst_interspike_interval): 67 nM | AC50 (2D rat cortical cultures; read-out: ac50 CCTE_Shafer_MEA_dev_per_burst_spike_percent): 244 nM | AC50 (2D rat cortical cultures; read-out: ac50 CCTE_Shafer_MEA_dev_per_network_spike_spike_number_mean): 766 nM | AC50 (2D rat cortical cultures; read-out: ac50 CCTE_Shafer_MEA_dev_per_network_spike_spike_percent): 2300 nM | AC50 (2D rat cortical cultures; read-out: ac50 CCTE_Shafer_MEA_dev_spike_duration_mean): 511 nM

ClC1=C(Cl)[C@]2(Cl)[C@@H]3[C@@H]4C[C@@H]([C@H]5O[C@@H]45)[C@@H]3[C@@]1(Cl)C2(Cl)Cl [Dieldrin]
AC50 (BrainSpheres; [1]): 45000 nM | Cytotoxicity hit (BrainSpheres; [2]): 0 | hitc BrainSphere.Cyto (BrainSpheres; resazurin, day 13, tcplfit2): 0 | BMD BrainSphere.Cyto (BrainSpheres; [3]): 509 µM
